# Key:
# Test in all cases: Bactericidal activity suspension assay
# Format in all cases: cell-based
# Conditions in all cases: 24 hours incubation
# [1] = test system: Salmonella enterica typhimurium ATCC 14028
# [2] = test system: Streptococcus viridans ATCC 6249
# [3] = test system: Listeria monocytogenes ATCC 19111
# [4] = test system: Enterococcus faecalis ATCC 29212
# [5] = test system: Staphylococcus aureus ATCC 6538
# [6] = test system: Mycobacterium chelonae ATCC 35752
# [7] = test system: Pseudomonas aeruginosa ATCC 9027
# [8] = test system: Aspergillus brasiliensis ATCC 16404
# [9] = test system: Candida albicans ATCC 10231
smiles,measurement,setting,value
"CCO [ETHANOL, ethanol]",BACTERICIDAL ACTIVITY %,[1],90%
same,BACTERICIDAL ACTIVITY %,[2],90%
same,BACTERICIDAL ACTIVITY %,[3],0%
same,BACTERICIDAL ACTIVITY %,[4],0%
same,BACTERICIDAL ACTIVITY %,[5],99%
same,BACTERICIDAL ACTIVITY %,[6],99%
same,BACTERICIDAL ACTIVITY %,[7],99.99%
same,BACTERICIDAL ACTIVITY %,[8],90%
same,BACTERICIDAL ACTIVITY %,[9],99.9%
